# According to patent EP0268915A2, “Trifluoromethylcarbonyl derivatives” (BAYER AG, priority 1986, dated 1988):
# Read-outs that look alike come from different tables or passages of the source.
# Columns and labels:
# Type in all cases: in vivo
# [1] = tested on: Nephotettix cincticeps; assay: Nephotettix test (rice seedlings dipped in the active compound preparation); conditions: for mortality at 0.0001 %: Nephotettix cincticeps, 144 h, read-out: Wirkung (Abtötung in %)
# Excerpt: (§1) Lösungsmittel: 7 Gewichtsteile Dimethylformamid Emulgator: 1 Gewichtsteil Alkylarylpolyglykolether
# Zur Herstellung einer zweckmäßigen Wirkstoffzubereitung vermischt man 1 Gewichstteil Wirkstoff mit der angegebenen Menge Lösungsmittel und der angegebenen Menge Emulgator und verdünnt das Konzentrat mit Wasser auf die gewünschte Konzentration.
# Reiskeimlinge (Oryza sativa) werden durch Tauchen in die Wirkstoffzubereitung der gewünschten Konzentration behandelt und mit der Grünen Reiszikade (Nephotettix cincticeps) besetzt, solange die Keimlinge noch feucht sind.
# Nach der gewünschten Zeit wird die Abtötung in % bestimmt. Dabei bedeutet 100 %, daß alle Zikaden abgetötet wurden; 0 % bedeutet, daß keine Zikaden abgetötet wurden.
# [2] = tested on: Myzus persicae; assay: Critical concentration test / root-systemic action, Myzus persicae; conditions: Wirkstoffkonzentration 20 ppm im Boden, Kohl (Brassica oleracea), Besatz nach 7 Tagen, Auswertung nach weiteren 2 Tagen; for mortality at 20 µg/mL: Myzus persicae, 48 h, read-out: wurzelsystemische Wirkung
# Excerpt: Grenzkonzentrations-Test / Wurzelsystemische Wirkung Testinsekt: Myzus persicae Lösungsmittel: 3 Gewichtsteile Aceton Emulgator: 1 Gewichtsteil Alkylarylpolyglykolether
# (§2) Zur Herstellung einer zweckmäßigen Wirkstoffzubereitung vermischt man 1 Gewichtsteil Wirkstoff mit der angegebenen Menge Lösungsmittel, gibt die angegebene Menge Emulgator zu und verdünnt das Konzentrat mit Wasser auf die gewünschte Konzentration.
# (§3) Die Wirkstoffzubereitung wird innig mit Boden vermischt. Dabei spielt die Konzentration des Wirkstoffs in der Zubereitung praktisch keine Rolle, entscheidend ist allein die Wirkstoffgewichtsmenge pro Volumeneinheit Boden, welche in ppm (= mg/1) angegeben wird. Man füllt den behandelten Boden in Töpfe und bepflanzt diese mit Kohl (Brassica oleracea). Der Wirkstoff kann so von den Pflanzenwurzeln aus dem Boden aufgenommen und in die Blätter transportiert werden.
# (§4) Für den Nachweis des wurzelsystemischen Effektes werden nach 7 Tagen ausschließlich die Blätter mit den obengenannten Testtieren besetzt. Nach weiteren 2 Tagen erfolgt die Auswertung durch Zählen oder Schätzen der toten Tiere. Aus den Abtötungszahlen wird die wurzelsystemische Wirkung des Wirkstoffs abgeleitet. Sie ist 100 %, wenn alle Testtiere abgetötet sind und 0 %, wenn noch genau so viele Testinsekten leben wie bei der unbehandelten Kontrolle.
# [3] = tested on: Phaedon cochleariae-Larven; assay: Critical concentration test / root-systemic action, Phaedon cochleariae larvae; conditions: Wirkstoffkonzentration 20 ppm im Boden, Kohl (Brassica oleracea), Besatz nach 7 Tagen, Auswertung nach weiteren 2 Tagen
# Excerpt: Grenzkonzentrations-Test / Wurzelsystemische Wirkung Testinsekt: Phaedon cochleariae-Larven Lösungsmittel: 3 Gewichtsteile Aceton
# Emulgator: 1 Gewichtsteil Alkylarylpolyglykolether
# as §2, §3, §4
# [4] = tested on: Aphis fabae; assay: Aphis test (systemic action, soil drench of bean plants); conditions: 96 h, read-out: Wirkung (Abtötung in %)
# Procedure: Aphis-Test (systemische Wirkung)
# as §1
# Zur Herstellung einer zweckmäßigen Wirkstoffzubereitung vermischt man 1 Gewichtsteil Wirkstoff mit der angegebenen Menge Lösungsmittel und der angegebenen Menge Emulgator und verdünnt das Konzentrat mit Wasser auf die gewünschte Konzentration.
# Mit je 20 ml Wirkstoffzubereitung der gewünschten Konzentration werden Bohnenpflanzen (Vicia faba), die stark von der schwarzen Bohnenlaus (Aphis fabae) befallen sind, angegossen, so daß die Wirkstoffzubereitung in den Boden eindringt, ohne den Sproß zu benetzen. Der Wirkstoff wird von den Wurzeln aufgenommen und in den Sproß weitergeleitet.
# Nach der gewünschten Zeit wird die Abtötung in % bestimmt. Dabei bedeutet 100 %, daß alle Blattläuse abgetötet wurden; 0 % bedeutet, daß keine Blattläuse abgetötet wurden.
# [5] = tested on: Lucilia cuprina resistent-Larven; assay: Test with resistant Lucilia cuprina larvae; conditions: 24 h, Wirkstoffkonzentration 100 ppm, nach 24 Stunden, read-out: Abtötung
# Excerpt: Test mit Lucilia cuprina resistent-Larven
# Emulgator: 35 Gewichtsteile Ethylenglykolmonomethylether 35 Gewichtsteile Nonylphenolpolyglykolether
# Zur Herstellung einer zweckmäßigen Wirkstoffzubereitung vermischt man drei Gewichtsteile Wirkstoff mit sieben Gewichtsteilen des oben angegebenen Gemisches und verdünnt das so erhaltene Konzentrat mit Wasser auf die jeweils gewünschte Konzentration.
# Etwa 20 Lucilia cuprina res.-Larven werden in ein Teströhrchen gebracht, welches ca. 1 cm^3 Pferdefleisch und 0,5 ml der Wirkstoffzubereitung enthält. Nach 24 Stunden wird der Abtötungsgrad bestimmt.
# [6] = Wirkstoffkonzentration 0,0001 %, nach 6 Tagen, Reiskeimlinge (Oryza sativa) getaucht
# [7] = Wirkstoffkonzentration 0,01 %, nach 4 Tagen, Bohnenpflanzen (Vicia faba) angegossen, systemisch
Structure (SMILES),wurzelsystemische Wirkung [2],wurzelsystemische Wirkung [3],"mortality at 0.01 % [4, 7] [%]",mortality at 100 µg/mL [5] [%],mortality at 20 µg/mL [2] [%],also measured
"O=C(C=C1SCCN1Cc1ccc(Cl)nc1)C(F)(F)F [Beispiel 3, 3-(6-Chlor-pyrid-3-yl)-methyl-2-(trifluormethylcarbonylmethylen)-1,3-thiazolidin]",100%,100%,–,–,–,"Wirkung (Abtötung in %) [1, 6]: 90%"
"O=C(C=C1NCCN1Cc1ccc(Cl)nc1)C(F)(F)F [Beispiel 4, 1-(6-Chlor-pyrid-3-yl)-methyl-2-(trifluormethylcarbonylmethylen)-imidazolidin]",–,–,100,100,100,–
"O=C(C(C(=O)C(F)(F)F)=C1NCCN1Cc1ccc(Cl)nc1)C(F)(F)F [Beispiel 5, 2-[(Di-trifluormethylcarbonyl)-methylen]-3-(6-chlor-pyrid-3-yl)-methylimidazolidin]",–,–,100,100,100,"mortality at 0.0001 % [1, 6]: 100%"
O=C(C=C1NCCCN1Cc1ccc(Cl)nc1)C(F)(F)F [Beispiel 8],–,–,100,100,100,"mortality at 20 µg/mL ([3]; Phaedon, 48 h, read-out: wurzelsystemische Wirkung): 100%"
O=C(C(C(=O)C(F)(F)F)=C1NCCCN1Cc1ccc(Cl)nc1)C(F)(F)F [Beispiel 9],–,–,–,100,–,–
"O=[N+]([O-])C=C1NCCCS1 [Vergleichssubstanz (A), Tetrahydro-2-nitromethylen-2H-1,3-thiazin, reference compound]",keine Wirkung,keine Wirkung,–,–,–,mortality at 0.0001 % [1]: 20%; mortality at 0.01 % [4]: 50%
